Measured values reported in US20260305610A1, “TRIAZOLE COMPOUND, AND PREPARATION METHOD THEREFOR, HERBICIDAL COMPOSITION AND USE THEREOF” (QINGDAO KINGAGROOT CHEMICAL COMPOUND CO., LTD., priority 2023, published 2026).

Experiments:
Assay type in all cases: in vivo
[1] = test system: monocotyledonous and dicotyledonous weeds; assay: Pre-emergence test experiment (weeds); set-up: key: 9: completely dead; 8: growth control rate is greater than or equal to 90% and less than 100%; 7: growth control rate is greater than or equal to 80% and less than 90%; 6: growth control rate is greater than or equal to 70% and less than 80%; growth control rate is greater than or equal to 50% and less than 70%; 4: growth control rate is greater than or equal to 30% and less than 50%; growth control rate is greater than or equal to 20% and less than 30%; growth control rate is greater than or equal to 10% and less than 20%; growth control rate is less than 10%; 0: no effect
Cyperus iria = assay: Pre-emergence sealing experiment for water-seeding; set-up: key: 9: completely dead; 8: growth control rate is greater than or equal to 90% and less than 100%; 7: growth control rate is greater than or equal to 80% and less than 90%; 6: growth control rate is greater than or equal to 70% and less than 80%; growth control rate is greater than or equal to 50% and less than 70%; 4: growth control rate is greater than or equal to 30% and less than 50%; growth control rate is greater than or equal to 20% and less than 30%; growth control rate is greater than or equal to 10% and less than 20%; growth control rate is less than 10%; 0: no effect; settings: 15 days, sulfonylurea-resistant strain
Description: (§1) The activity level criteria for plant damage (i.e., growth control rate) are as follows: • Level 9: completely dead; • Level 8: growth control rate is greater than or equal to 90% and less than 100%; • Level 7: growth control rate is greater than or equal to 80% and less than 90%; • Level 6: growth control rate is greater than or equal to 70% and less than 80%; • Level 5: growth control rate is greater than or equal to 50% and less than 70%; • Level 4: growth control rate is greater than or equal to 30% and less than 50%; • Level 3: growth control rate is greater than or equal to 20% and less than 30%; • Level 2: growth control rate is greater than or equal to 10% and less than 20%; • Level 1: growth control rate is less than 10%; • Level 0: no effect.
(§2) The seeds of Leptochloa chinensis, Digitaria sanguinalis, Monochoria vaginalis (sulfonylurea-resistant strain, collected from Hunan, China), Cyperus iria (sulfonylurea-resistant strain, collected from Jiangsu, China), Huaidao (rice cultivar), etc. were broadcasted on the surface of nutrition bowls filled with soil and fully covered by soil. The prepared nutrition bowls were then placed in a cultivation box, with water filled to a suitable height to keep the soil in the nutrition bowls moist. The test compounds of the present invention were individually dissolved with mixed solutions of acetone and Tween-80, then diluted into solution of a certain concentration using a certain amount of water and sprayed using a spray tower. The plants were placed on a greenhouse seedbed and cultured for 15 days, and the experimental results were then collected. The compounds were applied at 120, 60, 30 and 15 g a.i./ha in triplicate and the results were averaged. The effects were evaluated according to the above activity level criteria.

Monochoria vaginalis = assay: Pre-emergence sealing experiment for water-seeding; set-up: key: 9: completely dead; 8: growth control rate is greater than or equal to 90% and less than 100%; 7: growth control rate is greater than or equal to 80% and less than 90%; 6: growth control rate is greater than or equal to 70% and less than 80%; growth control rate is greater than or equal to 50% and less than 70%; 4: growth control rate is greater than or equal to 30% and less than 50%; growth control rate is greater than or equal to 20% and less than 30%; growth control rate is greater than or equal to 10% and less than 20%; growth control rate is less than 10%; 0: no effect; settings: 15 days, sulfonylurea-resistant strain
Description: as §1, §2

Leptochloa chinensis = assay: Pre-emergence sealing experiment for water-seeding; set-up: key: 9: completely dead; 8: growth control rate is greater than or equal to 90% and less than 100%; 7: growth control rate is greater than or equal to 80% and less than 90%; 6: growth control rate is greater than or equal to 70% and less than 80%; growth control rate is greater than or equal to 50% and less than 70%; 4: growth control rate is greater than or equal to 30% and less than 50%; growth control rate is greater than or equal to 20% and less than 30%; growth control rate is greater than or equal to 10% and less than 20%; growth control rate is less than 10%; 0: no effect; settings: 15 days
Description: as §1, §2

Digitaria sanguinalis = assay: Pre-emergence sealing experiment for water-seeding; set-up: key: 9: completely dead; 8: growth control rate is greater than or equal to 90% and less than 100%; 7: growth control rate is greater than or equal to 80% and less than 90%; 6: growth control rate is greater than or equal to 70% and less than 80%; growth control rate is greater than or equal to 50% and less than 70%; 4: growth control rate is greater than or equal to 30% and less than 50%; growth control rate is greater than or equal to 20% and less than 30%; growth control rate is greater than or equal to 10% and less than 20%; growth control rate is less than 10%; 0: no effect; settings: 15 days
Description: as §1, §2

major crops = assay: Pre-emergence test experiment (crops); set-up: key: 9: completely dead; 8: growth control rate is greater than or equal to 90% and less than 100%; 7: growth control rate is greater than or equal to 80% and less than 90%; 6: growth control rate is greater than or equal to 70% and less than 80%; growth control rate is greater than or equal to 50% and less than 70%; 4: growth control rate is greater than or equal to 30% and less than 50%; growth control rate is greater than or equal to 20% and less than 30%; growth control rate is greater than or equal to 10% and less than 20%; growth control rate is less than 10%; 0: no effect
weeds = assay: Activity assay of compositions: soil sealing treatment (S), fresh weight inhibition and combined effect (Gowing method); settings: Silene conoidea, 21 d
In short: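 Pre-emergence soil treatment: pre-germinated seeds sown 72 h earlier, sprayed at 450 kg/ha spray volume, 0.3 MPa; compounds in acetone diluted with 0.1% Tween-80. Greenhouse 20-30 °C; fresh weight of surviving weeds measured 21 days after treatment, 4 replicates. Expected mixture inhibition by Gowing formula, E0=X+Y−X*Y/100.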

[2] = test system: Echinochloa crusgalli, Schoenoplectiella juncoides and Bidens tripartita; assay: Resistance of collected weed seeds to pyrazosulfuron-ethyl; settings: conventional doses; seeds collected from Heilongjiang, China

Cc1ccc(-n2cnc(C(F)(F)F)n2)nc1Oc1cccc(C(F)(F)F)c1 [Compound 8]
Pre-emergence activity level (growth control rate) on Amaranthus retroflexus ([1]; 15 g a.i./ha): 9
Pre-emergence activity level (growth control rate) on Descurainia sophia ([1]; 15 g a.i./ha): 9
Pre-emergence activity level (growth control rate) on Digitaria sanguinalis ([1]; 15 g a.i./ha): 9
Pre-emergence activity level (growth control rate) on Setaria viridis ([1]; 15 g a.i./ha): 9
Pre-emergence activity level (growth control rate) on Solanum nigrum ([1]; 15 g a.i./ha): 9
Pre-emergence activity level (growth control rate) on Veronica ([1]; 15 g a.i./ha): 9
activity level (growth control rate, fresh weight), Cyperus iria (Cyperus iria; 15 g a.i./ha): 9
activity level (growth control rate, fresh weight), Monochoria vaginalis (Monochoria vaginalis; 15 g a.i./ha): 9
activity level (growth control rate, fresh weight), Leptochloa chinensis (Leptochloa chinensis; 15 g a.i./ha): 9
activity level (growth control rate, fresh weight), Digitaria sanguinalis (Digitaria sanguinalis; 15 g a.i./ha): 9
Pre-emergence plant damage level (growth control rate) on Corn (major crops; 15 g a.i./ha): 0
Pre-emergence plant damage level (growth control rate) on Cotton (major crops; 15 g a.i./ha): 0
Pre-emergence plant damage level (growth control rate) on Soybean (major crops; 15 g a.i./ha): 0

CCOC(=O)c1cnn(C)c1S(=O)(=O)NC(=O)Nc1nc(OC)cc(OC)n1 [pyrazosulfuron-ethyl, reference compound]
Control effect of B applied alone in a corresponding dose (%) (weeds; B 15 g a.i./ha): 50.4%
Control effect of B applied alone in a corresponding dose (%) (weeds; B 30 g a.i./ha): 65.6%
resistance of collected weed seeds [2]: resistant to conventional doses

COC(=O)c1ccccc1CS(=O)(=O)NC(=O)Nc1nc(OC)cc(OC)n1 [Bensulfuron-methyl, bensulfuron-methyl, reference compound]
Control effect of B applied alone in a corresponding dose (%) (weeds; B 15 g a.i./ha): 43.7%
Control effect of B applied alone in a corresponding dose (%) (weeds; B 30 g a.i./ha): 60.5%
activity level (growth control rate, fresh weight), Cyperus iria (Cyperus iria; 30 g a.i./ha): 5 (growth control rate is greater than or equal to 50% and less than 70%)
activity level (growth control rate, fresh weight), Monochoria vaginalis (Monochoria vaginalis; 30 g a.i./ha): 2 (growth control rate is greater than or equal to 10% and less than 20%)
activity level (growth control rate, fresh weight), Leptochloa chinensis (Leptochloa chinensis; 30 g a.i./ha): 3 (growth control rate is greater than or equal to 20% and less than 30%)
activity level (growth control rate, fresh weight), Digitaria sanguinalis (Digitaria sanguinalis; 30 g a.i./ha): 4 (growth control rate is greater than or equal to 30% and less than 50%)

CCc1ccc(-n2cnc(C(F)(F)F)n2)nc1Oc1cccc(C(F)(F)F)c1 [Compound 16]
Pre-emergence activity level (growth control rate) on Amaranthus retroflexus ([1]; 15 g a.i./ha): 9
Pre-emergence activity level (growth control rate) on Descurainia sophia ([1]; 15 g a.i./ha): 9
Pre-emergence activity level (growth control rate) on Digitaria sanguinalis ([1]; 15 g a.i./ha): 9
Pre-emergence activity level (growth control rate) on Setaria viridis ([1]; 15 g a.i./ha): 9
Pre-emergence activity level (growth control rate) on Solanum nigrum ([1]; 15 g a.i./ha): 9
Pre-emergence activity level (growth control rate) on Veronica ([1]; 15 g a.i./ha): 9
activity level (growth control rate, fresh weight), Cyperus iria (Cyperus iria; 15 g a.i./ha): 9
activity level (growth control rate, fresh weight), Monochoria vaginalis (Monochoria vaginalis; 15 g a.i./ha): 9
activity level (growth control rate, fresh weight), Leptochloa chinensis (Leptochloa chinensis; 15 g a.i./ha): 9
activity level (growth control rate, fresh weight), Digitaria sanguinalis (Digitaria sanguinalis; 15 g a.i./ha): 9
Pre-emergence plant damage level (growth control rate) on Corn (major crops; 15 g a.i./ha): 0
Pre-emergence plant damage level (growth control rate) on Cotton (major crops; 15 g a.i./ha): 0
Pre-emergence plant damage level (growth control rate) on Soybean (major crops; 15 g a.i./ha): 0

COCc1ccc(-n2cnc(C(F)(F)F)n2)nc1Oc1cccc(C(F)(F)F)c1 [Compound 23]
Pre-emergence activity level (growth control rate) on Amaranthus retroflexus ([1]; 30 g a.i./ha): 9
Pre-emergence activity level (growth control rate) on Descurainia sophia ([1]; 30 g a.i./ha): 9
Pre-emergence activity level (growth control rate) on Digitaria sanguinalis ([1]; 30 g a.i./ha): 9
Pre-emergence activity level (growth control rate) on Setaria viridis ([1]; 30 g a.i./ha): 8 (growth control rate is greater than or equal to 90% and less than 100%)
Pre-emergence activity level (growth control rate) on Solanum nigrum ([1]; 30 g a.i./ha): 9
Pre-emergence activity level (growth control rate) on Veronica ([1]; 30 g a.i./ha): 9
activity level (growth control rate, fresh weight), Cyperus iria (Cyperus iria; 15 g a.i./ha): 9
activity level (growth control rate, fresh weight), Monochoria vaginalis (Monochoria vaginalis; 15 g a.i./ha): 9
activity level (growth control rate, fresh weight), Leptochloa chinensis (Leptochloa chinensis; 15 g a.i./ha): 9
activity level (growth control rate, fresh weight), Digitaria sanguinalis (Digitaria sanguinalis; 15 g a.i./ha): 9
Pre-emergence plant damage level (growth control rate) on Corn (major crops; 30 g a.i./ha): 0
Pre-emergence plant damage level (growth control rate) on Cotton (major crops; 30 g a.i./ha): 0
Pre-emergence plant damage level (growth control rate) on Soybean (major crops; 30 g a.i./ha): 0
